Test results as given in patent US5723475A, “Arylpiperidine and arylpiperazine derivatives and medicament containing the same” (Suntory Limited, priority 1995, dated 1998).
pIC50: −log10 of the molar value. Values belong to the compound of their own block, whether it stands above or below them.

Assays:
Sodium Channel = assay: Veratridine-induced Sodium Channel Activity Inhibitory Effect (suppression of veratridine-induced depolarization in synaptosomes, Rhodamine 6G); format: biochemical, Wistar rats; settings: compound 0.1 μM; rat brain synaptosomes
Experimental: Veratridine-induced Sodium Channel Activity Inhibitory Effect
The membrane potential of the synaptosomes prepared from the brain membrane of Wistar rats (male, 10 to 12 weeks old) was measured by the method of Aiuchi et al. [T. Aiuchi et al: Biochimi. Biophys. Acta.

dopamine D2 receptors = settings: due to its action of blocking dopamine D2 receptors; cited from earlier work
Dopamine D2 receptor = target: T1, Dopamine D2 receptor (Rattus norvegicus, UniProt P61169); assay: Dopamine D2 Receptor Blocking Effect ([3H] raclopride binding, striatum membrane fraction); set-up: species or system Wister male rats; settings: 1.0 nM [3H] raclopride, 25° C., one hour
T1 construct: membrane fraction prepared from the striatum of Wister male rats; from tissue; host or cells: striatum of male Wistar rats (6 weeks old), membrane fraction
T1 sequence (P61169 whole entry): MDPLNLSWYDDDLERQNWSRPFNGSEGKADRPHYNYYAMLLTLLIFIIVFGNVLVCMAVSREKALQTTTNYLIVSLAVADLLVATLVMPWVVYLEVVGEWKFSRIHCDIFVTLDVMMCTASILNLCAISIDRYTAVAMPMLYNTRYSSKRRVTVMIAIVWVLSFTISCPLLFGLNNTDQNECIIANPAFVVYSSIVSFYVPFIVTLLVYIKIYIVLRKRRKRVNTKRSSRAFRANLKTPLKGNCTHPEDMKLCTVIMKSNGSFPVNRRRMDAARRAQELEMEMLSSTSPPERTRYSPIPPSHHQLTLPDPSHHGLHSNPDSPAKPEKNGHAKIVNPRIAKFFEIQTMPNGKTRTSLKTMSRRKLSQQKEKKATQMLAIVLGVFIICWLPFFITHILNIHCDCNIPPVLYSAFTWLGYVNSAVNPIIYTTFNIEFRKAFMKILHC
Experimental: Dopamine D2 Receptor Blocking Effect
57 μl of the membrane fraction prepared from the striatum of Wister male rats (6 weeks old) was incubated in a buffer at 25° C. for one hour along with the compound and 1.0 nM [^3 H) raclopride. A GF/C glass filter (0.1% polyethylene imine treatment) was used for separation of B/F, then the radioactivity was measured by a beta plate and the effect of the compound was evaluated.

T-type Ca^2+ channel = assay: T-Type Calcium Channel Inhibitory Effect (whole-cell patch clamp, hippocampal CA1 pyramidal cells); format: cell-based, Wistar rats; settings: suppression of peak current after one minute of application; rat hippocampal CA1 pyramidal cells; read-out: T-type Ca^Z+ channel inhibitory effect IC50
Experimental: T-Type Calcium Channel Inhibitory Effect
The hippocampal CA1 pyramidal cells were isolated from Wistar rats (male/female, 1 week old) in accordance with the method of Takahashi et al. [K. Takahashi et al.; J. Pharmacol. Exp. Ther., 256, 169 (1991)] and the T-type calcium current under conditions of a fixed membrane potential was measured using the whole-cell configuration of the pach clamp technique. The effects of the compounds were evaluated from the rate of suppression of the peak current after one minute of application using the concentration clamp method.

[1] = acute toxicity, death rate up to 24 hours after intravenous injection; settings: mouse, in vivo, ddY mice (male, 6 weeks old), read-out: 50% lethal dosage LD50 of acute toxicity
Text: The compounds of the present invention are low in toxicity.

Structure (SMILES): Cc1cccc(Cc2ccccc2)c1NC(=O)CCCN1CCN(c2ccc(Cc3ccc(F)cc3)cc2)CC1 [Compound 42, 2-benzyl-1-[4-(4-(4-(4-fluorophenyl)methylphenyl)piperazin-1-yl)butyrylamino]-6-methylbenzene]
- Anti-veratridine effect (inhibiting rate %) (Sodium Channel): 16.6%

Structure (SMILES): O=C(CCCN1CCC(c2ccc(Oc3ccccc3)cc2)CC1)NC1CCCOc2ccccc21 (stereo not drawn) [Compound 30, 5-[4-(4-(4-phenoxyphenyl)piperidin-1-yl)butyrylamino]-2,3,4,5-5 tetrahydro-1-benzoxepine]
- Anti-veratridine effect (inhibiting rate %) (Sodium Channel): 21.4%

Structure (SMILES): Fc1ccc(C(c2ccc(F)cc2)N2CCN(C/C=C/c3ccccc3)CC2)cc1 [Flunarizine]
- side effect (dopamine D2 receptors): onset of symptoms of Parkinson's disease

Structure (SMILES): O=C(CN1CCC(c2ccc(Cc3ccc(F)cc3)cc2)CC1)Nc1ccccc1 [Compound 60, N-phenyl-4-[4-(4-fluorophenyl)methylphenyl]-1-piperidinacetamide]
- Anti-veratridine effect (inhibiting rate %) (Sodium Channel): 33.9%

Structure (SMILES): Cc1cc(C)c(NC(=O)CCCN2CCC(c3ccc(Cc4ccc(F)cc4)cc3)CC2)c(C)c1 [Compound 49, 2,4,6-trimethyl-1-[4-(4-(4-(4-fluorophenyl)methylphenyl)piperidine-1-yl)butyrylamino]benzene]
- Anti-veratridine effect (inhibiting rate %) (Sodium Channel): 17%

Structure (SMILES): Cc1cccc(Cc2ccccc2)c1NC(=O)CN1CCC(c2ccc(Oc3ccccc3)cc2)CC1 [Compound 39, 2-benzyl-1-[2-(4-(4-phenoxyphenyl)piperidin-1-yl)acetylamino]-6-methylbenzene]
- Anti-veratridine effect (inhibiting rate %) (Sodium Channel): 16.6%

Structure (SMILES): O=C(NCCN1CCC(c2ccc(Oc3ccccc3)cc2)CC1)c1ccccc1 [Compound 62, 1-(2-benzoylaminoethyl)-4-(4-phenoxyphenyl)piperidine]
- Anti-veratridine effect (inhibiting rate %) (Sodium Channel): 36%

- pIC50 (Dopamine D2 receptor): < 6.00
Structure (SMILES): O=C(CCCCCN1CC=C(c2ccc(Oc3ccccc3)cc2)CC1)Nc1ccccc1Cc1ccccc1 [Compound 36, 2-benzyl-1-[6-(4-(4-phenoxyphenyl)-1,2,3,6-tetrahydropyridine-1-yl)hexanoylamino]benzene]
- Anti-veratridine effect (inhibiting rate %) (Sodium Channel): 55.1%

Structure (SMILES): O=C(CCCN1CCC(c2ccc(Cc3ccc(F)cc3)cc2)CC1)N1CCCOc2ccccc21 [Compound 54, 5-[4-(4-(4-(4-fluorophenyl)methylphenyl)piperidin-1-yl)butyryl]-2,3,4,5-tetrahydro-1,5-benzoxazepine]
- Anti-veratridine effect (inhibiting rate %) (Sodium Channel): 29.4%

Structure (SMILES): O=C(CCCN1CC=C(c2ccc(Oc3ccccc3)cc2)CC1)NC1CCCOc2ccccc21 (stereo not drawn) [Compound 29, 5-[4-(4-(4-phenoxyphenyl)-1,2,3,6-tetrahydropyridine-1-yl)butyrylamino]-2,3,4,5-tetrahydro-1-benzoxepine]
- Anti-veratridine effect (inhibiting rate %) (Sodium Channel): 27.9%

Structure (SMILES): Cc1cccc(Cc2ccccc2)c1NC(=O)CCCN1CCC(c2ccc(Oc3ccccc3)cc2)CC1 [Compound 41, 2-benzyl-1-[4-(4-(4-phenoxyphenyl)piperidin-1-yl)butyrylamino]-6-methylbenzene]
- Anti-veratridine effect (inhibiting rate %) (Sodium Channel): 30.4%

Structure (SMILES): C=C(c1ccccc1)N(C)C(=O)CN1CCC(c2ccc(Oc3ccccc3)cc2)CC1 [Compound 64, N-methyl-N-(1-phenylvinyl)-4-(4-phenoxyphenyl)-1-piperidinacetamide]
- Anti-veratridine effect (inhibiting rate %) (Sodium Channel): 31.5%

Structure (SMILES): O=C(CCCN1CCN(c2ccc(Cc3ccc(F)cc3)cc2)CC1)N1CCCOc2ccccc21 [Compound 53, 5-[4-(4-(4-(4-fluorophenyl)methylphenyl)piperazin-1-yl)butyryl]-2,3,4,5-tetrahydro-1,5-benzoxazepine]
- pIC50 (T-type Ca^2+ channel): 5.55
- Anti-veratridine effect (inhibiting rate %) (Sodium Channel): 33.8%
- pIC50 (Dopamine D2 receptor): 5.90
- LD50 at 24 h [1]: 46.5 mg/kg

Structure (SMILES): O=C(CCCCCN1CCN(c2ccc(Cc3ccc(F)cc3)cc2)CC1)Nc1ccccc1Cc1ccccc1 [Compound 38, 2-benzyl-1-[6-(4-(4-(4-fluorophenyl)methylphenyl)piperazin-1-yl)hexanoylamino]benzene]
- Anti-veratridine effect (inhibiting rate %) (Sodium Channel): 56.6%

Structure (SMILES): Cc1cccc(C)c1NC(=O)CCCN1CCC(c2ccc(Oc3ccccc3)cc2)CC1 [Compound 47, 2,6-dimethyl-1-[4-(4-(4-phenoxyphenyl)piperidin-1-yl)butyrylamino]benzene]
- Anti-veratridine effect (inhibiting rate %) (Sodium Channel): 17.3%

Structure (SMILES): O=C(CN1CCC(c2ccc(Oc3ccccc3)cc2)CC1)N[C@@H]1C[C@H]1c1ccccc1 (relative stereo) [Compound 56, N-(trans-2-phenyl-1-cyclopropyl)-4-(4-phenoxyphenyl)-1-piperidinacetamide]
- Anti-veratridine effect (inhibiting rate %) (Sodium Channel): 38.4%

- pIC50 (T-type Ca^2+ channel): 5.82
Structure (SMILES): O=C(CN1CCC(c2ccc(Cc3ccc(F)cc3)cc2)CC1)N[C@@H]1C[C@H]1c1ccccc1 (relative stereo) [Compound 57, N-(trans-2-phenyl-1-cyclopropyl)-4-[4-(4-fluorophenyl)methylphenyl]-1-piperidinacetamide]
- Anti-veratridine effect (inhibiting rate %) (Sodium Channel): 32.8%

Structure (SMILES): O=C(CCCN1CCC(c2ccc(Cc3ccc(F)cc3)cc2)CC1)Nc1ccccc1Cc1ccccc1 [Compound 35, 2-benzyl-1-[4-(4-(4-(4-fluorophenyl)methylphenyl)piperidin-1-yl)butyrylamino]benzene]
- Anti-veratridine effect (inhibiting rate %) (Sodium Channel): 40.6%

- pIC50 (Dopamine D2 receptor): < 6.00
Structure (SMILES): O=C(CCCCCN1CCC(c2ccc(Oc3ccccc3)cc2)CC1)Nc1ccccc1Cc1ccccc1 [Compound 37, 2-benzyl-1-[6-(4-(4-phenoxyphenyl)piperidin-1-yl)hexanoylamino]benzene]
- Anti-veratridine effect (inhibiting rate %) (Sodium Channel): 62%

Structure (SMILES): O=C(CCCN1CCC(c2ccc(Oc3ccccc3)cc2)CC1)Nc1ccccc1Cc1ccccc1 [Compound 33, 2-benzyl-1-[4-(4-(4-phenoxyphenyl)piperidin-1-yl)butyrylamino]benzene]
- Anti-veratridine effect (inhibiting rate %) (Sodium Channel): 37.5%

- pIC50 (T-type Ca^2+ channel): 5.00
- pIC50 (Dopamine D2 receptor): 5.15
Structure (SMILES): O=C(CCCN1CCN(c2ccc(Cc3ccc(F)cc3)cc2)CC1)Nc1ccccc1Cc1ccccc1 [Compound 34, 2-benzyl-1-[4-(4-(4-(4-fluorophenyl)methylphenyl)piperazin-1-yl)butyrylamino]benzene]
- Anti-veratridine effect (inhibiting rate %) (Sodium Channel): 50.2%

Structure (SMILES): O=C(NCCN1CCC(c2ccc(Oc3ccccc3)cc2)CC1)C1(c2ccccc2)CC1 [Compound 63, 1-[2-(1-phenyl-1-cyclopropylcarboxyamino)ethyl]-4-(4-phenoxyphenyl) piperidine]
- Anti-veratridine effect (inhibiting rate %) (Sodium Channel): 36.2%

Structure (SMILES): O=C(CN1CCC(c2ccc(Oc3ccccc3)cc2)CC1)Nc1ccccc1 [Compound 59, N-phenyl-4-(4-phenoxyphenyl)-1-piperidinacetamide]
- Anti-veratridine effect (inhibiting rate %) (Sodium Channel): 32.9%

- pIC50 (Dopamine D2 receptor): < 6.00
Structure (SMILES): O=C(CCCN1CC=C(c2ccc(Oc3ccccc3)cc2)CC1)Nc1ccccc1Cc1ccccc1 [Compound 32, 2-benzyl-1-[4-(4-(4-phenoxyphenyl)-1,2,3,6-tetrahydropyridin-1-yl)butyrylamino]benzene]
- Anti-veratridine effect (inhibiting rate %) (Sodium Channel): 35.7%
